# According to patent US20240261411A1, “PERMEATION ENHANCERS FOR GASTROINTESTINAL SYNTHETIC EPITHELIAL LININGS” (Syntis Bio, Inc., priority 2023, published 2024):
# Key:
# [1] = pig model, semaglutide pharmacokinetics after endoscopic placement or IV; design: species or system Yorkshire pigs; settings: in vivo, 1.5 mg/kg
# From the text: Yorkshire pigs, weighing 40-80 kg each over 7 months and approximately 4-9 months of age were used. Following routine preoperative fast, pigs were anesthetized, intubated, and maintained on isoflurane anesthesia during the procedure. An indwelling marginal ear vein catheter was be inserted for blood collection, which occurred over 1-7 days. Dry GSEL powders containing permeation enhancers and semaglutide were solubilized with Tris buffer immediately before administration. An endoscope guided catheter was placed into the proximal small intestines, where the GSEL suspensions were injected. Blood was taken periodically from the ear vein catheter and the blood was immediately centrifuged down in serum collection tubes. Samples were analyzed via ELISA and LC-MS. Pigs were woken up after 6 hours and monitored until full recovery.
# For the following experiment, a ratio of formulation components as presented in Table E8 was used (e.g., 2×GSEL, 6.4 mg/kg GCA, 6.4 mg/kg NHCO, with semaglutide at a final ratio of 20:2.35 permeation enhancer to semaglutide).
# [2] = Franz cell permeability of semaglutide; settings: Franz cells, porcine duodenal tissue
# Description: Franz cells were used for testing different permeation enhancers on ex vivo tissue from the small intestine, such as porcine duodenal tissue (or colon tissue where indicated). Water pumps were attached to the Franz cell rack to maintain each Franz cell at 37° C. The racks were loaded with Franz cells, and each cell was filled with 5 mL of phosphate buffered saline. Tissue was cut into ˜3.2×3.2 cm squares and any large clumps of mucus or excrement was removed before mounting onto the Franz cells. Next, gastrointestinal synthetic epithelial lining (GSEL) solutions were prepared by first weighing out dopamine HCl, polydopamine, and a permeation enhancer into a vial. […] Samples from the receiving compartment was periodically collected from 0 to 24 hours and the concentration of API was measured. […]
# The same experiment was carried out, except without using a permeation enhancer in the GSEL solution. The amount of API detected in the receiving compartment for GSELS with permeation enhancer was compared to the amount of API detected in the receiving compartment for GSELs without permeation enhancer at each time point to determine the increase in permeation provided by the permeation enhancer.
Compound,"absorption, in words [1]","semaglutide permeability, comparison in words [2]"
"CC[C@H](C)[C@H](NC(=O)[C@H](Cc1ccccc1)NC(=O)[C@H](CCC(=O)O)NC(=O)[C@H](CCCCNC(=O)COCCOCCNC(=O)COCCOCCNC(=O)CC[C@H](NC(=O)CCCCCCCCCCCCCCCCC(=O)O)C(=O)O)NC(=O)[C@H](C)NC(=O)[C@H](C)NC(=O)[C@H](CCC(N)=O)NC(=O)CNC(=O)[C@H](CCC(=O)O)NC(=O)[C@H](CC(C)C)NC(=O)[C@H](Cc1ccc(O)cc1)NC(=O)[C@H](CO)NC(=O)[C@H](CO)NC(=O)[C@@H](NC(=O)[C@H](CC(=O)O)NC(=O)[C@H](CO)NC(=O)[C@@H](NC(=O)[C@H](Cc1ccccc1)NC(=O)[C@@H](NC(=O)CNC(=O)[C@H](CCC(=O)O)NC(=O)C(C)(C)NC(=O)[C@@H](N)Cc1cnc[nH]1)[C@@H](C)O)[C@@H](C)O)C(C)C)C(=O)N[C@@H](C)C(=O)N[C@@H](Cc1c[nH]c2ccccc12)C(=O)N[C@@H](CC(C)C)C(=O)N[C@H](C(=O)N[C@@H](CCCNC(=N)N)C(=O)NCC(=O)N[C@@H](CCCNC(=N)N)C(=O)NCC(=O)O)C(C)C [Control (semaglutide only), semaglutide]",zero absorption,
"O=C([O-])CCCCCCCNC(=O)c1ccccc1O.[Na+] [SNAC, sodium N-[8-(2-hydroxybenzoyl)amino]caprylate]",,did not promote permeation of semaglutide as much
